Measurements published in ChEMBL document CHEMBL1201862, “PubChem BioAssay data set” (2004).
Calls of active or inactive are those of the source.

What was measured:
Coagulation factor XII = target: T1, Coagulation factor XII (Homo sapiens, UniProt P00748); assay: FXIIa inhibitor potency, concentration-response, biochemical (AID 716); type: functional
T1 sequence (P00748 whole entry): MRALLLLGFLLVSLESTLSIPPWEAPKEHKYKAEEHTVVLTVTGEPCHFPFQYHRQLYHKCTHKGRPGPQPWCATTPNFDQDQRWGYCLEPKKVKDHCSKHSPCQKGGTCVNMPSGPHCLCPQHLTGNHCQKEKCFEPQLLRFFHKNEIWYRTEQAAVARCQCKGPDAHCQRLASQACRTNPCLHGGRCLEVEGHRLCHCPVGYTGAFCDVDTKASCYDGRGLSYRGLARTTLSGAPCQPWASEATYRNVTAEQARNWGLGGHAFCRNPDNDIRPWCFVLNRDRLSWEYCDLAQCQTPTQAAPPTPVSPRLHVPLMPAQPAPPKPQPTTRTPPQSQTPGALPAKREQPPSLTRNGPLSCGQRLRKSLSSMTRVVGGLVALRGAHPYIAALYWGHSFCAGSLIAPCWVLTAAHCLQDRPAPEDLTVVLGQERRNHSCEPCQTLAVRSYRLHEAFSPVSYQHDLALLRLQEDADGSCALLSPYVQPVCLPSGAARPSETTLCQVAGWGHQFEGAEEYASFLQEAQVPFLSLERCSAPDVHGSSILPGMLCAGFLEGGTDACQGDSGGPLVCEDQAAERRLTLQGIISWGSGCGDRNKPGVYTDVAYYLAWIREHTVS

Perilipin-1/ABHD5 = Perilipin-1/ABHD5 (Homo sapiens, UniProt O60240+Q8WTS1); assay: Luminescence-based biochemical high throughput dose response assay for inhibitors of the interaction of the lipase co-activator protein, abhydrolase domain containing 5 (ABHD5) with perilipin-1 (PLIN1) (2K validation set). [Related pubchem assays (depositor defined):AID493027, AID493057]
Sequence of Perilipin-1/ABHD5 (Q8WTS1 whole entry, the tested form may be a part): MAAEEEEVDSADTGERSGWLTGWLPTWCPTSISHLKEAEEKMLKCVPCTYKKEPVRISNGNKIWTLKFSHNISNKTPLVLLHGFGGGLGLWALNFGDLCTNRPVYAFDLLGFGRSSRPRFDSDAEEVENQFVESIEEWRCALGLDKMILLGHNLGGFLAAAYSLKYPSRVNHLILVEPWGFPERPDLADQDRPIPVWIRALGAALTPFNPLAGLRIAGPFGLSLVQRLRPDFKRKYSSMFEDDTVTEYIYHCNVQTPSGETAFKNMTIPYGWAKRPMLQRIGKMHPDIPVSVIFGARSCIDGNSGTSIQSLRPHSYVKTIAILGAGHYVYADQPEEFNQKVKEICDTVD
Sequence of Perilipin-1/ABHD5 (O60240 whole entry, the tested form may be a part): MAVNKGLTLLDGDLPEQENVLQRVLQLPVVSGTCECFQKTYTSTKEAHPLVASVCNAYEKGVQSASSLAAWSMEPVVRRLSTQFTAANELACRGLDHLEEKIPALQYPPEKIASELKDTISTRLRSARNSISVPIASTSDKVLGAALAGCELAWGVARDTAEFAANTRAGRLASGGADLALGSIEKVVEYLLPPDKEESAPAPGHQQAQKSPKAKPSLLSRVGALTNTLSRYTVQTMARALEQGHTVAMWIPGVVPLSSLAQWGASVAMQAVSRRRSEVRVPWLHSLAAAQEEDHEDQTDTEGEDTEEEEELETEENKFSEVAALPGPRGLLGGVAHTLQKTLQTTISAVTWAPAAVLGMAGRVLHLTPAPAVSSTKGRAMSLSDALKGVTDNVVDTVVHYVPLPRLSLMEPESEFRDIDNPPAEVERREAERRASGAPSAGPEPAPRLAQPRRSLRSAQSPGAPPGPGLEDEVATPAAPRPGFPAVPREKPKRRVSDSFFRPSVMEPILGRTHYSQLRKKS

[1] = target: 1-acylglycerol-3-phosphate O-acyltransferase ABHD5/Perilipin-5 (Homo sapiens, UniProt Q00G26+Q8WTS1); assay: Luminescence-based biochemical high throughput dose response assay for inhibitors of the interaction of the lipase co-activator protein, abhydrolase domain containing 5 (ABHD5) with perilipin-5 (MLDP; PLIN5) (2K validation set). [Related pubchem assays (depositor defined):AID493035, AID493241]
Sequence of 1-acylglycerol-3-phosphate O-acyltransferase ABHD5/Perilipin-5 (Q00G26 whole entry, the tested form may be a part): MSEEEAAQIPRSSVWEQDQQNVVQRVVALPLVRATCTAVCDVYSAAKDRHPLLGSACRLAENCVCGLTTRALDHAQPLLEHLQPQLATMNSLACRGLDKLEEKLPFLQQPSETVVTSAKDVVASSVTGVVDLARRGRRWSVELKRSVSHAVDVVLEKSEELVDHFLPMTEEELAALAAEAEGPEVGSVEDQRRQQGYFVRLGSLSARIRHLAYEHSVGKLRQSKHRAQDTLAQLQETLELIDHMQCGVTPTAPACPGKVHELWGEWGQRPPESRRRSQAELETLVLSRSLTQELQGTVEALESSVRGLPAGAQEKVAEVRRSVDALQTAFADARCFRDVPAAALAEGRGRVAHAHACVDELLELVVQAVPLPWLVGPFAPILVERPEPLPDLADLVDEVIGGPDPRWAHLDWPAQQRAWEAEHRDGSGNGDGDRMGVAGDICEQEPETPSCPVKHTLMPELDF
Sequence of 1-acylglycerol-3-phosphate O-acyltransferase ABHD5/Perilipin-5 (Q8WTS1 whole entry, the tested form may be a part): as the sequence (Q8WTS1 whole entry, the tested form may be a part) above

Cytochrome P450 2C9 = Cytochrome P450 2C9 (Homo sapiens, UniProt P11712)
Sequence of Cytochrome P450 2C9 (P11712 whole entry): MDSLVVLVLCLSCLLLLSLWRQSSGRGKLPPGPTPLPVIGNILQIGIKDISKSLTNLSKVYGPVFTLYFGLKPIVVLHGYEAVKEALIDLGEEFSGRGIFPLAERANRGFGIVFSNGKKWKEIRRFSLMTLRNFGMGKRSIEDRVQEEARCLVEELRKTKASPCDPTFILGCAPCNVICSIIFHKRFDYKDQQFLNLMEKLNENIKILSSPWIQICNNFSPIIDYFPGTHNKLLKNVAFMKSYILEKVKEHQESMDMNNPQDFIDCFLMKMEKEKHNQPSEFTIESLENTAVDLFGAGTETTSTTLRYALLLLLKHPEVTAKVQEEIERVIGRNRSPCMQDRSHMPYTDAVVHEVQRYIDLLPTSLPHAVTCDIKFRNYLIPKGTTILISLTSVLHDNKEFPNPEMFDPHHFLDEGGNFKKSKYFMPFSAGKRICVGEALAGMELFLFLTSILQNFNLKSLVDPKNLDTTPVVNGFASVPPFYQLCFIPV

X-box-binding protein 1 = X-box-binding protein 1 (Homo sapiens, UniProt P17861); type: functional, Cricetulus griseus;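 also: confirmatory dose-response counter-screen serving a CHOP assay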
Sequence of X-box-binding protein 1 (P17861 whole entry): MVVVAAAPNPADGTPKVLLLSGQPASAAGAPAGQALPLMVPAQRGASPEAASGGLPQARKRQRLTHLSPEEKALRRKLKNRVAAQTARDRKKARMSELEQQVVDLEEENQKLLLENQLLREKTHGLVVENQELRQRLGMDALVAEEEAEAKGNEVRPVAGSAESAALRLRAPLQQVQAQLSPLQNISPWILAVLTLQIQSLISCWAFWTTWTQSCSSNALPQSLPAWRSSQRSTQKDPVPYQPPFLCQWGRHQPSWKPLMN

[2] = target: Female germline-specific tumor suppressor gld-1 (Caenorhabditis elegans, UniProt Q17339); assay: inhibitors of GLD-1 binding to TGE RNA, dose response, biochemical, fluorescence polarization, C. elegans (AID 2802);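 also: fluorescence polarization of labeled TGE RNA bound by purified gld-1 protein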
Sequence of Female germline-specific tumor suppressor gld-1 (Q17339 whole entry): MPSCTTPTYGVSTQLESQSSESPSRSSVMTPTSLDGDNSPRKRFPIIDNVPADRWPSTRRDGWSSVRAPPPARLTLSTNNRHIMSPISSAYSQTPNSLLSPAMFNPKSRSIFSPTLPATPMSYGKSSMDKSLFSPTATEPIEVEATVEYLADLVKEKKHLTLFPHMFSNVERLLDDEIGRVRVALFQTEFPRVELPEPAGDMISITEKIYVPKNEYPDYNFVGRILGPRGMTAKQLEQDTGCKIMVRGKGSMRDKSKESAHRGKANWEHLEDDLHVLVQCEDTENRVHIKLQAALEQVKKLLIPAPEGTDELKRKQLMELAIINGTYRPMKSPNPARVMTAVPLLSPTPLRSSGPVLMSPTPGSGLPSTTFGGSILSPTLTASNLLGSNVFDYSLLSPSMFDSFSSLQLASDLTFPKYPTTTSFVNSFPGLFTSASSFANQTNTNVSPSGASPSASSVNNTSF

[3] = target: Induced myeloid leukemia cell differentiation protein Mcl-1 (Homo sapiens, UniProt Q07820); type: functional
Sequence of Induced myeloid leukemia cell differentiation protein Mcl-1 (Q07820 whole entry): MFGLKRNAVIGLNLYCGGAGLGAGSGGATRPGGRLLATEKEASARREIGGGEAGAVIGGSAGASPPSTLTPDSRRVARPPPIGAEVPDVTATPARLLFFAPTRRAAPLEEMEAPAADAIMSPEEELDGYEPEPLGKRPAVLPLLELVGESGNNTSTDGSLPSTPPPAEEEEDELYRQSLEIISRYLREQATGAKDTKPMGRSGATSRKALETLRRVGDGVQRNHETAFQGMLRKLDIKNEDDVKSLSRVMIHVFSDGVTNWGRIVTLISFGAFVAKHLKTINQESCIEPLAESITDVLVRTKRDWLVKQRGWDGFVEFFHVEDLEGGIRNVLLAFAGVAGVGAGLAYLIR

Protein Rev = Protein Rev (Human immunodeficiency virus type 1 group M subtype B (isolate HXB2)(HIV-1), UniProt P04618); assay: inhibitors of Rev binding to RRE RNA, dose response, biochemical, fluorescence polarization, HIV-1 (AID 434976); set-up: species or system Human immunodeficiency virus 1
Sequence of Protein Rev (P04618 whole entry): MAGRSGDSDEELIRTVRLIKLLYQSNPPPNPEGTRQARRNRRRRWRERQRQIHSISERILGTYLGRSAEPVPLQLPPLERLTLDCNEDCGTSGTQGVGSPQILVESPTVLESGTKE

HEK293 [4] = assay: NOD2 signaling inhibitors in MDP-stimulated cells, cell-based, uHTS, luminescence (AID 2001); type: functional; details: Homo sapiens
HEK293 [5] = assay: cells; type: functional, cell-based; details: Homo sapiens
[6] = target: Nucleotide-binding oligomerization domain-containing protein 2 (Homo sapiens, UniProt Q9HC29); assay: NOD2 signaling inhibitors, cell-based, luminescence, uHTS, HEK293 (AID 1566); type: functional
Sequence of Nucleotide-binding oligomerization domain-containing protein 2 (Q9HC29 whole entry, the tested form may be a part): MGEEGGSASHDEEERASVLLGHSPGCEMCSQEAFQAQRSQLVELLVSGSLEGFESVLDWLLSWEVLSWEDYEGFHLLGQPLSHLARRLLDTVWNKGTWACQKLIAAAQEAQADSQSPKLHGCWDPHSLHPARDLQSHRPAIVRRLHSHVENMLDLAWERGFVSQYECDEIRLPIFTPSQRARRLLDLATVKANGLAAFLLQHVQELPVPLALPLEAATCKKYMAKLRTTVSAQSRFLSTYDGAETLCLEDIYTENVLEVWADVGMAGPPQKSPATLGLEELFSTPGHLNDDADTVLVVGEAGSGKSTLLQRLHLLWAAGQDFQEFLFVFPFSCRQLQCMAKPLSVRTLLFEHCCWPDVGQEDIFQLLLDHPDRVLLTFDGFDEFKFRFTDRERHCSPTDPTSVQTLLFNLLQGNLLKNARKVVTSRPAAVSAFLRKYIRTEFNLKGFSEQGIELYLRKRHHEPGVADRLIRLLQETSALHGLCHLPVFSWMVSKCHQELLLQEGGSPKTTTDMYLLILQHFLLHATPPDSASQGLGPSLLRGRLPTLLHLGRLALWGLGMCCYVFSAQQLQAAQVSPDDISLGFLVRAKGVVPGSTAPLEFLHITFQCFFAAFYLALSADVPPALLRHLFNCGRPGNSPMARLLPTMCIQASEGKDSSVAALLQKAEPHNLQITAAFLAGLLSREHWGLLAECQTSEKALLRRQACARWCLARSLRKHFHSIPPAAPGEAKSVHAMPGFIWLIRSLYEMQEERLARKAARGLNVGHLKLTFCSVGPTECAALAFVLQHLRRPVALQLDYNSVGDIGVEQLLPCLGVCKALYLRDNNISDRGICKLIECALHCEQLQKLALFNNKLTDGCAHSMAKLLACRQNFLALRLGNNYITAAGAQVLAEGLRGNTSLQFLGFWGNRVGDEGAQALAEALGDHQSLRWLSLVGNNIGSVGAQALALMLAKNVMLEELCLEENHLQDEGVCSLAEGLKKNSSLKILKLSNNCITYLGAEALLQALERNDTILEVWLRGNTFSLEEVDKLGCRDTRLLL

HEK293 [7] = assay: cells; type: functional, cell-based; details: Homo sapiens; remark: listed apart in the source
HEK293 [8] = assay: NOD1 signaling inhibitors, primary screen, cell-based, luminescence, uHTS (AID 1578); type: functional; details: Homo sapiens
HEK293 [9] = assay: cells; type: functional, cell-based; details: Homo sapiens; remark: listed apart in the source
[10] = growth suppression of beta-catenin-knockout colon cells, dose response, cell-based, HCT116, human colon tumor (AID 1045); type: functional;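 also: HCT116 colon tumor cells with beta catenin knocked out; cells exposed to compound for 60 hours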
Nonstructural protein 1 = Nonstructural protein 1 (Influenza A virus, UniProt Q194T2); type: functional, Influenza A virus (A/California/07/2009(H1N1))
Sequence of Nonstructural protein 1 (Q194T2 whole entry): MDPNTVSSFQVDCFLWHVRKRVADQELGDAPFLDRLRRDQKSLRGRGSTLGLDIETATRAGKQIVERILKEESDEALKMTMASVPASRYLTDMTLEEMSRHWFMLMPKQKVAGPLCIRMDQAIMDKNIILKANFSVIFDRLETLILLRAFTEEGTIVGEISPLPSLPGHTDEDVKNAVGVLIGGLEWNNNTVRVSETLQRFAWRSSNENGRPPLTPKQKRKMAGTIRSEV

[11] = growth suppression of PTEN-null colon cells, dose response, cell-based, HCT116 PTEN knockout (AID 1047); type: functional;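 also: HCT116 colon tumor cells with PTEN knocked out; cells exposed to compound for 60 hours before readout; potency for loss of cell viability measured by luminescence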
[12] = target: G-protein coupled receptor 55 (Homo sapiens, UniProt Q9Y2T6); assay: GPR55 agonists via beta-arrestin recruitment, primary screen, imaging, U2OS cells, beta-arrestin-GFP redistribution (AID 1961); type: functional
Sequence of G-protein coupled receptor 55 (Q9Y2T6 whole entry): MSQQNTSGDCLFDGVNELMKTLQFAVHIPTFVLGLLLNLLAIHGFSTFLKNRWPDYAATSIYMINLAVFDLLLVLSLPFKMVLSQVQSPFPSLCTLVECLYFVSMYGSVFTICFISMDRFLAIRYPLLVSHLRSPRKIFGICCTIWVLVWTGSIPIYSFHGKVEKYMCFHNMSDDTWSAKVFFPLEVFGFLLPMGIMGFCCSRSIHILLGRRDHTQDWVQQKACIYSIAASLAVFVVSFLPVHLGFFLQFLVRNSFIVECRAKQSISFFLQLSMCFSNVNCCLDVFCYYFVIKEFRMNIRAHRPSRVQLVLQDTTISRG

[13] = microbe, parasite or virus in culture; type: functional; details: Mycobacterium tuberculosis

Cn1c(=O)c(C(=O)CN2CCCc3ccccc32)c(N)n(Cc2ccccc2)c1=O
IC50 (Coagulation factor XII): > 50 µM (inactive)

COc1ccc(/C=C/C(=O)c2cc3cccc(OC)c3oc2=O)cc1
IC50 (Perilipin-1/ABHD5): 3.34 µM (active) | IC50 [1]: 3.3 µM (active)

CCOCC(=O)Nc1cc(-c2cn3cccnc3n2)ccc1C
AC50 (Cytochrome P450 2C9): 22.4 µM (inconclusive) | IC50 (Coagulation factor XII): > 50 µM (inactive)

CC(C)c1nnc(N2C(=O)c3oc4ccccc4c(=O)c3C2c2ccco2)s1 (stereo not given)
Absolute IC50 (XBP1) (X-box-binding protein 1): 10 µM

CN(C)c1ccc(/N=C2\C(=O)N(C)c3cccc4c(O)c5ccccc5c2c34)cc1
IC50 [2]: 0.868 µM (active) | IC50 [3]: 10.6 µM (active) | IC50 (Protein Rev): 1.05 µM (active)

Cc1ccc(NC(=O)CCC(=O)N/N=C/c2ccccc2O)cc1
IC50 (HEK293 [4]): > 20 µM (inactive) | IC50 (HEK293 [5]): > 20 µM (inactive) | EC50 [6]: > 20 µM (inactive) | IC50 (HEK293 [7]): > 20 µM (inactive) | EC50 (HEK293 [8]): > 20 µM (inactive) | IC50 (HEK293 [9]): 14.7 µM (active)

O=C1Nc2ccccc2/C1=N\N=C\C1=C(N2CCOCC2)C(=C\c2ccccc2)/CC1
EC50 [10]: 16 µM (active) | IC50 (Nonstructural protein 1): 8.08 µM (active) | EC50 [11]: 14.2 µM (active) | EC50 [12]: > 32 µM (inactive) | CC50 [13]: 28.2 µM (active)
